Tests used:
Type in all cases: cell-based, Chinese hamster
[1] = tested on: ASIC3 currents in CHO cells co-expressing ASIC3 and PAR2; test: Whole-cell patch clamp of proton-gated currents (I pH 6.6) in CHO cells co-expressing ASIC3 and PAR2
Method: (§1) ASIC3, ASIC1a, ASIC1b, ASIC2b, and PAR2 complementary DNAs (cDNAs) were used for heterologous expression in CHO cells as described previously (Wang et al., 2013). In brief, CHO cells were cultured at 37 °C in a humidified atmosphere of 5% CO2 and […] and passaged twice a week. Transient transfection of CHO cells was performed using HilyMax liposome transfection reagent (Dojindo Laboratories). CHO cells were maintained in F-12 Nutrient Mixture (added 1.176 g of NaHCO3/L medium) supplemented with 10% fetal bovine serum and 1% gluta-MAXTM-1 (100×; Invitrogen). When ASIC3 and PAR2 cDNAs were co-transfected, the ratio was kept at 1:1. All plasmids used contained, in addition to the desired ASIC3 cDNA, the coding sequence for enhanced green fluorescent protein to aid identification of transfected cells. Electrophysiological measurements were performed 24–48 h after transfection.
Whole-cell patch clamp and voltage clamp recordings were carried out at room temperature (22–25 °C) using a MultiClamp-700B amplifier and Digidata-1440A A/D converter (Axon Instruments, CA, USA). Recording pipettes were pulled using a Sutter P-97 puller (Sutter Instruments, CA, USA). The micropipettes were filled with internal solution containing (mM) KCl 140, MgCl2 2.5, HEPES 10, EGTA 11, and ATP 5; its pH was adjusted to 7.2 with KOH, and osmolarity was adjusted to 310 mOsm/L with sucrose. Cells were bathed in an external solution containing (mM) NaCl 150, KCl 5, CaCl2 2.5, MgCl2 2, HEPES 10, D-glucose 10; its osmolarity was adjusted to 330 mOsm/L with sucrose and its pH to 7.4. The resistance of the recording pipette was in the range of 3–6 MΩ. A small patch of membrane underneath the tip of the pipette was aspirated to form a giga seal, and then, a negative pressure was applied to rupture it, thus establishing a whole-cell configuration. The series resistance was compensated for by 70–80%. The adjustment of capacitance compensation was also done before recording the membrane currents. The membrane voltage was maintained at −60 mV in all voltage clamp experiments unless otherwise specified. Current clamp recordings were obtained by switching to current clamp mode after a stable whole-cell configuration was formed in voltage clamp mode. Only cells with a stable resting membrane potential (more negative than −50 mV) were used in the study. Signals were sampled at 10 to 50 kHz and filtered at 2 to 10 kHz, and the data were stored in compatible PC computer for off-online analysis using the pCLAMP 10 acquisition software (Axon Instruments, CA, USA).
Drugs purchased from Sigma and used in the experiments include hydrochloric acid, 2-furoyl-LIGRLO-NH2 (a PAR2-activating peptide (PAR2-AP)), trypsin, FSLLRY-NH2, APETx2, and capsazepine. Different pH values were configured with hydrochloric acid and external solution. All drugs were dissolved daily in the external solution just before use and held in a linear array of fused silica tubes (o.d./i.d. = 500 μm/200 μm) connected to a series of independent reservoirs. The application pipette tips were positioned ∼30 μm away from the recorded neurons. The application of each drug was driven by gravity and controlled by the corresponding valve, and rapid solution exchange could be achieved within about 100 ms by shifting the tubes horizontally with a PC-controlled micromanipulator. Cells were constantly bathed in normal external solution flowing from one tube connected to a larger reservoir between drug applications. In some experiments where GDP-β-S (Sigma), U-73122(Sigma), and GF109203X (RBI) were applied for intracellular dialysis through recording patch pipettes, they were dissolved in the internal solution before use. To ensure that the cell interior was perfused with the dialysis drug, there was at least a 30-min interval between the establishment of whole-cell access and the current measurement. […]

[2] = tested on: heteromeric ASIC1b+3 channels expressed with PAR2 in CHO cells; test: Whole-cell patch clamp, heteromeric ASIC1b+3 channels expressed with PAR2 in CHO cells; conditions: PAR2-AP 10^−5 M for 1 min; I pH 6.6; ASIC3:other subunit 1:3; n = 8
Method: as §1
(§2) Whole-cell patch clamp and voltage clamp recordings were carried out at room temperature (22–25 °C) using a MultiClamp-700B amplifier and Digidata-1440A A/D converter (Axon Instruments, CA, USA). […]
(§3) Drugs purchased from Sigma and used in the experiments include hydrochloric acid, 2-furoyl-LIGRLO-NH2 (a PAR2-activating peptide (PAR2-AP)), trypsin, FSLLRY-NH2, APETx2, and capsazepine. […] The application pipette tips were positioned ∼30 μm away from the recorded neurons. […]

[3] = tested on: heteromeric ASIC1a+3 channels expressed with PAR2 in CHO cells; test: Whole-cell patch clamp, heteromeric ASIC1a+3 channels expressed with PAR2 in CHO cells; conditions: PAR2-AP 10^−5 M for 1 min; I pH 6.6; ASIC3:other subunit 1:3; n = 8
Method: as §1, §2, §3

Substance: 2-furoyl-LIGRLO-NH2 [PAR2-AP]
- maximum effect (potentiation of ASIC3 currents) ([1]; 10^−4 M, pre-applied 1 min, I pH 6.6, n = 9): 66.6 ± 7.5%
- increase of peak amplitude of I pH 6.6 after pretreatment with agonist alone ([1]; 10^−5 M for 1 min, n = 10): 61.6 ± 4.6%
- EC50 ([1]; I pH 6.6 for 5 s, PAR2-AP 10^−9–10^−4 M pre-applied 1 min, −60 mV, mean ± SEM of 8 to 10 cells, read-out: EC50 of PAR2-AP for potentiation of peak amplitude of proton-gated (ASIC3) currents): 0.29 µM
- threshold pH value of proton concentration–response curve in presence vs absence of PAR2-AP ([1]; PAR2-AP 10^−5 M): no significant difference
- increase in the maximal current response to protons ([1]; PAR2-AP 10^−5 M pre-applied, proton concentration–response curve, 8 to 10 cells): 58.7 ± 3.8%
- Hill coefficient of proton concentration–response curve in the presence of PAR2-AP ([1]; PAR2-AP 10^−5 M, 2.36 ± 0.13 in its absence, P > 0.1): 2.28 ± 0.15
- Hill coefficient of steady-state desensitization with PAR2-AP ([1]; PAR2-AP 10^−5 M, 3.58 ± 0.29 without): 3.65 ± 0.35
- pH50 (pH for half-maximal current response) with PAR2-AP pretreatment ([1]; PAR2-AP 10^−5 M, 6.70 ± 0.02 without, P > 0.1): 6.71 ± 0.04
- pH50 for steady-state desensitization in the presence of PAR2-AP ([1]; PAR2-AP 10^−5 M, conditioning pH 7.6 to 6.6 for 2 min, then pH 6.0, 7.16 ± 0.01 without, P < 0.05, 6 to 8 cells): 7.05 ± 0.02
- Hill coefficient of the concentration–response curve for PAR2-AP ([1]; potentiation of I pH 6.6, pre-applied 1 min): 0.76
- increase of peak current of heteromeric ASIC1b+3 channels [2]: 55.2 ± 5.9%
- increase of peak current of heteromeric ASIC1a+3 channels [3]: 51.6 ± 6.5%

— publication PMC5534107, “Sensitization of ASIC3 by proteinase-activated receptor 2 signaling contributes to acidosis-induced nociception” (Journal of Neuroinflammation, 2017)
